According to ChEMBL document CHEMBL3997804, “Evaluation of a series of 2-napthamide derivatives as inhibitors of the drug efflux pump AcrB for the reversal of antimicrobial resistance” (Bioorg Med Chem Lett, 2017):
Activity calls are given as the source filed them. The calls are words filed in the database; no cut-off is given here. Peptide text beside a SMILES is read from it. * marks the point of attachment. βNA = c1ccc2cc(N*)ccc2c1

Tests used:
[1] = test system: Escherichia coli; assay: Growth inhibition of wild-type drug-resistant Escherichia coli BW25113 after 18 hrs by resazurin dye based broth microdilution method
[2] = test system: Escherichia coli BW25113; assay: Inhibition of AcrB in wild-type drug resistant Escherichia coli BW25113 assessed as potentiation of erythromycin-induced antibacterial activity after 18 hrs by checkerboard method
[3] = test system: Escherichia coli BW25113; assay: Inhibition of AcrB in wild-type drug resistant Escherichia coli BW25113 assessed as potentiation of chloramphenicol-induced antibacterial activity after 18 hrs by checkerboard method
[4] = test system: Escherichia coli BW25113; assay: Inhibition of AcrB in wild-type drug resistant Escherichia coli BW25113 assessed as potentiation of tetraphenyl phosphonium chloride-induced antibacterial activity after 18 hrs by checkerboard method
[5] = test system: Escherichia coli; assay: Effect on rifampicin-induced antibacterial activity against wild-type drug resistant Escherichia coli BW25113 after 18 hrs by checkerboard method; assay type: functional
[6] = test system: Escherichia coli BW25113; assay: Inhibition of AcrB in drug resistant Escherichia coli BW25113 assessed as reduction in nile red efflux at 200 uM pretreated for 15 mins followed by nile red addition measured after 3 hrs for 200 secs in presence of glucose by fluorimetric method
[7] = test system: Escherichia coli BW25113; assay: Inhibition of […] in drug resistant Escherichia coli BW25113 assessed as increase in outer membrane permeability by measuring increase nitrocefin hydrolysis at 512 ug/ml measured over 30 mins in presence of CCCP by spectrophotometric method
[8] = test system: Escherichia coli BW25113; assay: Inhibition of AcrB in drug resistant Escherichia coli BW25113 assessed as reduction in nile red efflux at 500 uM pretreated for 15 mins followed by nile red addition measured after 3 hrs for 200 secs in presence of glucose by fluorimetric method
[9] = test system: Escherichia coli BW25113; assay: Inhibition of AcrB in wild-type drug resistant Escherichia coli BW25113 assessed as potentiation of erythromycin-induced antibacterial activity by measuring erythromycin MIC at 200 ug/ml after 18 hrs by checkerboard method (reference value: 128 ug/ml)
[10] = test system: Escherichia coli BW25113; assay: Inhibition of AcrB in wild-type drug resistant Escherichia coli BW25113 assessed as potentiation of chloramphenicol-induced antibacterial activity by measuring chloramphenicol MIC at 200 ug/ml after 18 hrs by checkerboard method (reference value: 8 ug/ml)
[11] = test system: Escherichia coli BW25113; assay: Inhibition of AcrB in wild-type drug resistant Escherichia coli BW25113 assessed as potentiation of tetraphenyl phosphonium chloride-induced antibacterial activity by measuring tetraphenyl phosphonium chloride MIC at 200 ug/ml after 18 hrs by checkerboard method (reference value: 1024 ug/ml)
[12] = test system: Escherichia coli; assay: Effect on rifampicin-induced antibacterial activity against wild-type drug resistant Escherichia coli BW25113 assessed as rifampicin MIC at 200 ug/ml after 18 hrs by checkerboard method (reference value: 16 ug/ml); assay type: functional; conditions: BW25113, 18 h

SMILES	growth inhibition (GI) [1]	inhibition [2]	inhibition [3]	inhibition [4]	Activity [5]	inhibition [6]	inhibition [7]	inhibition [8]	MIC [9]	MIC [10]	MIC [11]	MIC [12]
NC(=O)c1cc(OCc2ccc(F)cc2)c2ccccc2c1	Non-Toxic	inactive	inactive	inactive	inactive							
CCCCC(CC)COc1cc(C(N)=O)cc2ccccc12 (stereo not drawn)	Non-Toxic	inactive	inactive	inactive	inactive							
NC(=O)c1cc(OCc2ccccc2Cl)c2ccccc2c1	Non-Toxic	inactive	inactive	inactive	inactive							
Cc1ccccc1COc1cc(C(N)=O)cc2ccccc12	Non-Toxic	inactive	inactive	inactive	inactive							
NC(=O)c1cc(OCC2CCCC2)c2ccccc2c1	Non-Toxic	inactive	inactive	inactive	inactive							
CCOC(=O)COc1cc(C(N)=O)cc2ccccc12	Non-Toxic	inactive	inactive	inactive	inactive							
NC(=O)c1cc(OCc2cccc(F)c2)c2ccccc2c1	Non-Toxic	inactive	inactive	inactive	inactive							
NC(=O)c1cc(OCc2ccccc2F)c2ccccc2c1	Non-Toxic	inactive	inactive	inactive	inactive	Active						
CCOC(=O)CCCOc1cc(C(N)=O)cc2ccccc12	Non-Toxic	inactive	inactive	inactive	inactive							
CC(C)COc1cc(C(N)=O)cc2ccccc12	Non-Toxic	Active					Active	Active				
NC(=O)c1cc(OCc2ccccc2)c2ccccc2c1	Non-Toxic		Active				Active	Active				
CCOC(=O)C(C)Oc1cc(C(N)=O)cc2ccccc12 (stereo not drawn)	Non-Toxic	inactive	inactive	inactive	inactive							
CCC(C)Oc1cc(C(N)=O)cc2ccccc12 (stereo not drawn)	Non-Toxic	inactive	inactive	inactive	inactive							
N=C(N)NCCC[C@H](NC(=O)[C@@H](N)Cc1ccccc1)C(=O)Nc1ccc2ccccc2c1 [PABETAN] (H-Phe-Arg-βNA)									16 µg/mL	2 µg/mL	128 µg/mL	1 µg/mL
